Laboratory results taken from ChEMBL document CHEMBL1155531, “Structure guided design of 5-arylindazole glucocorticoid receptor agonists and antagonists” (J Med Chem, 2010).

Experiments:
[1] = system: Mus musculus; experiment: Inhibition of IL1-induced circulating IL6 release in mouse at 1 mg/kg, po; assay type: functional
[2] = target: T1, Androgen receptor (Homo sapiens, UniProt P10275)
T1 sequence (P10275 whole entry): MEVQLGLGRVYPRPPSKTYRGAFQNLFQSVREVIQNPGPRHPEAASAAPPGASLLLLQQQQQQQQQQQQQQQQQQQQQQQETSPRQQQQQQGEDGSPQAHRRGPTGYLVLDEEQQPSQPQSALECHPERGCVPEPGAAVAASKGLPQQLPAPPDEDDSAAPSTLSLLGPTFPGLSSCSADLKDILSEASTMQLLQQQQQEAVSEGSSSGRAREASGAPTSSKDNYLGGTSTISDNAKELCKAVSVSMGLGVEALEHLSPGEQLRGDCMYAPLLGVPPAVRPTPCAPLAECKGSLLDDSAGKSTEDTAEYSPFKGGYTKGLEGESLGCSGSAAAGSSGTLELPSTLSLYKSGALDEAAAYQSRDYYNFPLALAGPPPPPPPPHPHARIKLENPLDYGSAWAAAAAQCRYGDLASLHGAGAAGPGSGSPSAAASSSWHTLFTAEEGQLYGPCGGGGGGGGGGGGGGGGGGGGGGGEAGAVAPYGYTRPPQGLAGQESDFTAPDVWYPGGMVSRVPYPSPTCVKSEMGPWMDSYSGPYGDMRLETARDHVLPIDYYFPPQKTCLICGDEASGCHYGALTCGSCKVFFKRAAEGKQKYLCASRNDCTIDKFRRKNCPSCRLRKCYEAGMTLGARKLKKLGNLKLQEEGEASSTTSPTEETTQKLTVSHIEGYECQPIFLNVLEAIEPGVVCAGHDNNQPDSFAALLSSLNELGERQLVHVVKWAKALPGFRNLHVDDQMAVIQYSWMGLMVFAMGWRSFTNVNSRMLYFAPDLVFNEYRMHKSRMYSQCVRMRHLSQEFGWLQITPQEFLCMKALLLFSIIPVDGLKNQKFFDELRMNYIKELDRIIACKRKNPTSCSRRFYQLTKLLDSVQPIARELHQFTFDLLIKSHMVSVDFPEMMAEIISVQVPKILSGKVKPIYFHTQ

[3] = Tmax in DBA1 mouse at 1 mg/kg, po; assay type: ADME, organism-based; set-up: dose 1 mg/kg, route oral; details: in vivo
[4] = Plasma clearance in DBA1 mouse at 1 mg/kg, po and 1 mg/kg, iv; assay type: ADME, organism-based
[5] = target: T2, Progesterone receptor (Homo sapiens, UniProt P06401); experiment: Binding affinity to PR
T2 sequence (P06401 whole entry): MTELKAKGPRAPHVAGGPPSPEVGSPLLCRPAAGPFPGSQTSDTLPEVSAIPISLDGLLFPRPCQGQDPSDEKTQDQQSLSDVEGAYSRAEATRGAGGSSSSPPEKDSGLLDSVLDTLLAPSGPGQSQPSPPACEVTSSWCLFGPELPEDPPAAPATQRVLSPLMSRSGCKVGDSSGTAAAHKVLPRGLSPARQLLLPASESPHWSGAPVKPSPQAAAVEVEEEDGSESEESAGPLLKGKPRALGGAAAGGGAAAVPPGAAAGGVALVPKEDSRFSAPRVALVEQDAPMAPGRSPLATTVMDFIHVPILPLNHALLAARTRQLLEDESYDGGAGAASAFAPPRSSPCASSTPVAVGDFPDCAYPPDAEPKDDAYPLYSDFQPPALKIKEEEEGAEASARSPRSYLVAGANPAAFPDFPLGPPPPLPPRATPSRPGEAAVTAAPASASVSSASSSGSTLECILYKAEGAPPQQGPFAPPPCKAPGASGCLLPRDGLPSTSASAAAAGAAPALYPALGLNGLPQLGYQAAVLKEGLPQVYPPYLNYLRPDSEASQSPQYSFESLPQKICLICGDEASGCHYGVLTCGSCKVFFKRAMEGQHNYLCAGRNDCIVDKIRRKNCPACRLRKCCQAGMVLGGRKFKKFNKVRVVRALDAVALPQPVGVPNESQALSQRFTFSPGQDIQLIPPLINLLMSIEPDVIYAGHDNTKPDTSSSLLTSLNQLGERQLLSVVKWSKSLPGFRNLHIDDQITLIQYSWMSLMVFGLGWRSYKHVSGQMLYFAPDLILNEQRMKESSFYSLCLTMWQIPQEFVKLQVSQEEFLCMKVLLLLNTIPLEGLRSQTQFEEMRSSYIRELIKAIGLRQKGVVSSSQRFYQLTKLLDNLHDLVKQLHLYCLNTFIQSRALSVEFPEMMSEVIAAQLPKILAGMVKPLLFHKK

[6] = Oral bioavailability in DBA1 mouse at 1 mg/kg; assay type: ADME, organism-based; details: in vivo
[7] = Antiinflammatory activity in human primary synovial fibroblasts assessed as inhibition of IL1-induced IL6 release after 18 hrs by MSD technology; assay type: functional
[8] = Plasma concentration in mouse bearing mouse NIH-3T3 cells integrated with MMTV reporter gene at 0.1 mg/kg, po after 1 hr; assay type: ADME, organism-based, NIH3T3; set-up: dose 0.1 mg/kg, route oral
[9] = Relative fraction unbound in mouse assessed as ratio of fraction unbound in mouse at 10 mg/kg, po to IC50 for NF-kappaB transrepression activity in A549 cells expressing MMTV reporter gene; assay type: ADME, organism-based; set-up: dose 10 mg/kg, route oral; details: in vivo
[10] = Elimination half life in DBA1 mouse at 1 mg/kg, po and 1 mg/kg, iv; assay type: ADME, organism-based; details: in vivo, read-out: beta t1/2 (converted)

O=S(=O)(Cc1ccccc1)Nc1ccc(-c2ccc3c(cnn3-c3ccc(F)cc3)c2)c(C(F)(F)F)c1
inhibition in vivo at 1 mg/kg [1]: 0% | IC50 [2]: > 10 µM | Tmax [3]: 6 h | clearance [4]: 8 mL/min/kg | IC50 [5]: > 10 µM | bioavailability [6]: > 51% | IC50 [7]: 0.00316 µM | concentration at 1 h [8]: 25 nM | fold change (FC) [9]: 0.5 | half-life [10]: 4 h
